Laboratory results: ChEMBL document CHEMBL2434936, “Bicyclic and tricyclic heterocycle derivatives as histamine H3 receptor antagonists for the treatment of obesity” (Bioorg Med Chem Lett, 2013)
Active and inactive are the calls of the source. The calls are words filed in the database; no cut-off is given here.

Key:
[1] = molecular target: Cytochrome P450 2D6 (Homo sapiens, UniProt P10635); assay: Inhibition of CYP2D6 in human liver microsomes; assay type: ADME, Microsome
[2] = molecular target: Histamine H3 receptor (Mus musculus, UniProt P58406); assay: Displacement of [3H]N-alpha-methylhistamine from mouse histamine H3 receptor after 30 mins by scintillation counting analysis
Histamine H3 receptor (Mus musculus, UniProt P58406), sequence (P58406 whole entry): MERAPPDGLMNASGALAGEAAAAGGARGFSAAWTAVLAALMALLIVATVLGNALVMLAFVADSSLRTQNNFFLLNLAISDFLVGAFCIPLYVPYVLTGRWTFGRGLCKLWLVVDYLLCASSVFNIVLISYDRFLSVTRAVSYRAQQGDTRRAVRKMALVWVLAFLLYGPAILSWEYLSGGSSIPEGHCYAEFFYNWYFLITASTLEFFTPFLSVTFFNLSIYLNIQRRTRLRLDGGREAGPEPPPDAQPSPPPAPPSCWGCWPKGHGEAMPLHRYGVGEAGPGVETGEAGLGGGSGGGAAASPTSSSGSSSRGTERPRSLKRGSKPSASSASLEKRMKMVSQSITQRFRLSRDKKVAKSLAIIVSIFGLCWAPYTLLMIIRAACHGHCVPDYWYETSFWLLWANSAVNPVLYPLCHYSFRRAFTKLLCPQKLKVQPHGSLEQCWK

[3] = molecular target: Cytochrome P450 3A4 (Homo sapiens, UniProt P08684); assay: Inhibition of CYP3A4 in human liver microsomes; assay type: ADME, Microsome
Cytochrome P450 3A4, sequence (P08684 whole entry): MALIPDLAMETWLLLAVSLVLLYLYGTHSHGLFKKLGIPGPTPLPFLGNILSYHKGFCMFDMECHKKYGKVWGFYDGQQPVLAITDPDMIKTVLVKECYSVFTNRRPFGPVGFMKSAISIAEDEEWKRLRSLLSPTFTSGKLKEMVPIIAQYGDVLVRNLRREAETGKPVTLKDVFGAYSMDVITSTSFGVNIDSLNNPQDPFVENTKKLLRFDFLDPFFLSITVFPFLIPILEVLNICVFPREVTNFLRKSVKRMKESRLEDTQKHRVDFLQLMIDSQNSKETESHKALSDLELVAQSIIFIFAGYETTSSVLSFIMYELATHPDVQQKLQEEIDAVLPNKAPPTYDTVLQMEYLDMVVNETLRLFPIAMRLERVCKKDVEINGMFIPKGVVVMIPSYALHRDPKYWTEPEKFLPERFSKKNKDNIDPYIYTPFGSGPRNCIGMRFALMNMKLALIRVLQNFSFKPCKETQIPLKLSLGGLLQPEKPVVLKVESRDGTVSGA

[4] = molecular target: hERG (KCNH2) (Homo sapiens, UniProt Q12809); assay: Inhibition of human ERG channel at 5 ug/ml after 30 mins by rubidium efflux assay
hERG (KCNH2), sequence (Q12809 whole entry): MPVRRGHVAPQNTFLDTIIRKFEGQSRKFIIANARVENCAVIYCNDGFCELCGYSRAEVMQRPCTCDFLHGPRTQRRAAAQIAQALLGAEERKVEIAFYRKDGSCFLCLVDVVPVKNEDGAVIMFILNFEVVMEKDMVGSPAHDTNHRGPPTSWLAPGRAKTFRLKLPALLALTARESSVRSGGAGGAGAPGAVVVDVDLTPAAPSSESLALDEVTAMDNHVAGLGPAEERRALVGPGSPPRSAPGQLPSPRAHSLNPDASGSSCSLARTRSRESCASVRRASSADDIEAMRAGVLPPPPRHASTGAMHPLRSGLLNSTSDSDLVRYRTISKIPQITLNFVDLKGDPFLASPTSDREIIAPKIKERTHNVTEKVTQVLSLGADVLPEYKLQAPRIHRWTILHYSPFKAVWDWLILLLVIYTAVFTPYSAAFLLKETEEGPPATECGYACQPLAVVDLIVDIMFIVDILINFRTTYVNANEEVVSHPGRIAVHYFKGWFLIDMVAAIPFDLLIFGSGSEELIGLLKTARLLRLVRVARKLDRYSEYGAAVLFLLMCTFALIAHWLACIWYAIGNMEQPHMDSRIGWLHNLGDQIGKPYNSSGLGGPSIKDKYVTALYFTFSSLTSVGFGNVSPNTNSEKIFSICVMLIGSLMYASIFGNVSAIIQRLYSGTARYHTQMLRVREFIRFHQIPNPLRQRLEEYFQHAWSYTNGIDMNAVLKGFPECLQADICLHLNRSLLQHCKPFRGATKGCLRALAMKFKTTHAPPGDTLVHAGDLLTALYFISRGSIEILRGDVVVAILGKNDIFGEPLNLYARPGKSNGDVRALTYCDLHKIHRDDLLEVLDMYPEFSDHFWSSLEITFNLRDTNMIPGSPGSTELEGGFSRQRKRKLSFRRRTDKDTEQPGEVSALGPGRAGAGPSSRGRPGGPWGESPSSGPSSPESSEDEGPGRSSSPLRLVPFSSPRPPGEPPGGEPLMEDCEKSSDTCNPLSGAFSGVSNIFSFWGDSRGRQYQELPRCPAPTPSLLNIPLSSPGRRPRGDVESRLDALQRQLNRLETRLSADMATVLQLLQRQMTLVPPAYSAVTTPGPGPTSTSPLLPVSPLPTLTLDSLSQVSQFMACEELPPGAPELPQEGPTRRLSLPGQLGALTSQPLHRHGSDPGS

[5] = molecular target: Histamine H3 receptor (Homo sapiens, UniProt Q9Y5N1); assay: Displacement of [3H]N-alpha-methylhistamine from human recombinant histamine H3 receptor expressed in HEK cells after 30 mins by scintillation counting analysis; assay type: cell-based, HEK293
Histamine H3 receptor (Homo sapiens, UniProt Q9Y5N1), sequence (Q9Y5N1 whole entry): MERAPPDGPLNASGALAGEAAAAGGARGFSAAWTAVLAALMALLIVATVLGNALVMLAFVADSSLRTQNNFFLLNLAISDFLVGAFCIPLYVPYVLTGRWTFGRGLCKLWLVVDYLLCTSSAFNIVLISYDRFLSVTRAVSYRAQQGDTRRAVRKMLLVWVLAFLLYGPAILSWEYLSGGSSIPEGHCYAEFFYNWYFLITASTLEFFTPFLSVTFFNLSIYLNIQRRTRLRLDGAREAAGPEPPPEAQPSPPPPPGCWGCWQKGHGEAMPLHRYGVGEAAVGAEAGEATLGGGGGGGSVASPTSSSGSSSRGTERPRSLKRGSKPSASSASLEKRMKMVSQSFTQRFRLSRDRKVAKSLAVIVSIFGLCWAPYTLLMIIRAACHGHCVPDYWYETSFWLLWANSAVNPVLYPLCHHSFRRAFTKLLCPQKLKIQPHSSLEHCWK

[6] = molecular target: Cytochrome P450 2C9 (Homo sapiens, UniProt P11712); assay: Inhibition of CYP2C9 in human liver microsomes; assay type: ADME, Microsome
Cytochrome P450 2C9, sequence (P11712 whole entry): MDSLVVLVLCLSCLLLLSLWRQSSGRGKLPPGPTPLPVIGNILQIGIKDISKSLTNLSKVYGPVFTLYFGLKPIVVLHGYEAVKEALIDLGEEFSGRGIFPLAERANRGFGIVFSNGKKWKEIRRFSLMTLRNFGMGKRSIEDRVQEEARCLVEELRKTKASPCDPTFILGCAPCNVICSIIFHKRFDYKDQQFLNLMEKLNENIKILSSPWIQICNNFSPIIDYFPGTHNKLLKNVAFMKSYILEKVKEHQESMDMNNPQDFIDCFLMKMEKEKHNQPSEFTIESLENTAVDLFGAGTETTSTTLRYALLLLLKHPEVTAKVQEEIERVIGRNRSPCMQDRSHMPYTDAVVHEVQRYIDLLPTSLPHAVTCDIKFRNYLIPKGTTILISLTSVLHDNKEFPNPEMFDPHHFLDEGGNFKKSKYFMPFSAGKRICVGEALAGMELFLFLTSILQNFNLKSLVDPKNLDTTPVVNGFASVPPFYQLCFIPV

[7] = test system: Mus musculus; assay: Ex vivo displacement of [3H]N-alpha-methylhistamine from histamine H3 receptor in mouse cortex at 10 mg/kg, po after 4 hrs by topcount scintillation counting analysis; assay type: functional
[8] = test system: Mus musculus; assay: Ex vivo displacement of [3H]N-alpha-methylhistamine from histamine H3 receptor in mouse cortex at 1 mg/kg, po after 4 hrs by topcount scintillation counting analysis; assay type: functional
[9] = Plasma concentration in rat at 300 mg/kg, po after 4 hrs by Irwin test; assay type: ADME, organism-based; design: dose 300 mg/kg, route oral
[10] = Plasma concentration in rat at 100 mg/kg, po after 4 hrs by Irwin test; assay type: ADME, organism-based; design: dose 100 mg/kg, route oral
[11] = test system: Rattus norvegicus; assay: Toxicity in rat assessed as behavioral change at 100 to 300 mg/kg, po by Irwin test; assay type: organism-based; design: dose 100-300 mg/kg, route oral; conditions: in vivo
[12] = test system: Mus musculus; assay: Antiobesity activity in diet-induced obesity mouse model assessed as reduction in body weight at 3 mg/kg, po after 4 days relative to vehicle-treated control; assay type: functional; conditions: 96 h
[13] = Drug uptake in rat brain at 100 mg/kg, po after 4 hrs by Irwin test; assay type: ADME, organism-based; design: dose 100 mg/kg, route oral; conditions: read-out: Drug uptake
[14] = test system: Mus musculus; assay: Antiobesity activity in diet-induced obesity mouse model assessed as reduction in body weight at 1 mg/kg, po after 4 days relative to vehicle-treated control; assay type: functional; conditions: 96 h
[15] = species on record: Mus musculus; assay: Ex vivo receptor occupancy of histamine H3 receptor in mouse brain after 72 hrs by time-course method; assay type: functional, organism-based
[16] = test system: Mus musculus; assay: Antiobesity activity in diet-induced obesity mouse model assessed as reduction in body weight at 10 mg/kg, po after 4 days relative to vehicle-treated control; assay type: functional; conditions: 96 h
[17] = Drug uptake in rat brain at 300 mg/kg, po after 4 hrs by Irwin test; assay type: ADME, organism-based; design: dose 300 mg/kg, route oral; conditions: read-out: Drug uptake
[18] = test system: Mus musculus; assay: Ex vivo displacement of [3H]N-alpha-methylhistamine from histamine H3 receptor in mouse cortex at 3 mg/kg, po after 4 hrs by topcount scintillation counting analysis; assay type: functional

Cytochrome P450 2D6, sequence (P10635 whole entry): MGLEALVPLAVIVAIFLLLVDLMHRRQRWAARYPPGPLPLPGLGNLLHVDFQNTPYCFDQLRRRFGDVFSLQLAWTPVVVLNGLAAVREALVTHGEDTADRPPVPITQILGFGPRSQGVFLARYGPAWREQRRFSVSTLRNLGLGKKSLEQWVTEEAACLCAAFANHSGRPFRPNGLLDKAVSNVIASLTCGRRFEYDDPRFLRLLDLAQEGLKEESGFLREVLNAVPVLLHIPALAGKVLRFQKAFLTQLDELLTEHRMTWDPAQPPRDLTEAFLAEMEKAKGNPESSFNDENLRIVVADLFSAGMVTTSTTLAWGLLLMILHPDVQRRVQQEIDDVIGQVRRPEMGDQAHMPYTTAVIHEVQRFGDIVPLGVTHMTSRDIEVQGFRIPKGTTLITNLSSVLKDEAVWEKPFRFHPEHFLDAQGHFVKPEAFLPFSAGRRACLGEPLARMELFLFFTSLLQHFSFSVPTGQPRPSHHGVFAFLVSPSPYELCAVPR

Row | Compound | IC50 [1] [nM] | Ki [2] [nM] | IC50 [3] [nM] | inhibition at 0.5 h, 5 ug/ml [4] [%] | Ki [5] [nM] | IC50 [6] [nM] | inhibition in vivo at 10 mg/kg [7] [%] | inhibition in vivo at 1 mg/kg [8] [%] | concentration at 4 h [9] [ng/mL] | concentration at 4 h [10] [ng/mL] | Activity [11] | inhibition in vivo at 3 mg/kg [12] [%] | concentration at 4 h [13] [ng/g] | inhibition in vivo at 1 mg/kg [14] [%] | Activity [15] | inhibition in vivo at 10 mg/kg [16] [%] | concentration at 4 h [17] [ng/g] | inhibition in vivo at 3 mg/kg [18] [%]
1 | Cc1nnc2n1-c1sccc1CN(C1CCN(C(=O)C3(F)CCN(Cc4ccnc(N)c4)CC3)CC1)C2 | > 30000 | 2 | > 30000 | 9 | 1 | > 30000 | 14 |  |  |  |  |  |  |  |  |  |  | 
2 | Nc1cc(CN2CCC(F)(C(=O)N3CCC(N4Cc5cccnc5C4)CC3)CC2)ccn1 |  | 15 |  |  | 7 |  |  |  |  |  |  |  |  |  |  |  |  | 
3 | N#Cc1ccc2c(c1)CN(C1CCN(C(=O)C3(F)CCN(Cc4ccnc(N)c4)CC3)CC1)CC2 | > 30000 | 2 | > 30000 | 11 | 2 | > 30000 |  | 52 |  |  |  |  |  |  |  |  |  | 
4 | Nc1cc(CN2CCC(F)(C(=O)N3CCC(N4c5ccccc5Sc5cccnc54)CC3)CC2)ccn1 |  | 26 |  | 54 | 7 |  | 89 |  |  |  |  |  |  |  |  |  |  | 
5 | Nc1cc(CN2CCC(F)(C(=O)N3CCC(N4CCCc5ccccc5C4)CC3)CC2)ccn1 | > 30000 | 115 | > 30000 | 25 | 36 | > 30000 | 78 |  |  |  |  |  |  |  |  |  |  | 
6 | Cc1nnc2n1-c1sccc1C(=O)N(C1CCN(C(=O)C3(F)CCN(Cc4ccnc(N)c4)CC3)CC1)C2 | > 30000 | 70 | > 30000 | 6 | 27 | > 30000 | 0 |  |  |  |  |  |  |  |  |  |  | 
7 | Cn1c2c(c3ccccc31)CCN(C1CCN(C(=O)C3(F)CCN(Cc4ccnc(N)c4)CC3)CC1)CC2 | > 30000 | 46 | > 30000 | 21 | 15 | > 30000 |  |  |  |  |  |  |  |  |  |  |  | 
8 | Nc1cc(CN2CCC(F)(C(=O)N3CCC(N4CCc5ccccc5CC4)CC3)CC2)ccn1 | > 30000 | 3 | > 30000 | -2 | 1 | > 30000 | 98 |  | 4940 | 836 | Non-toxic | 52 | 13700 | 38 | Active | 89 | 47100 | 
9 | Nc1cc(CN2CCC(F)(C(=O)N3CCC(N4Cc5ccccc5Cc5ccccc54)CC3)CC2)ccn1 | > 30000 | 44 | 18000 | 50 | 4 | 4000 |  |  |  |  |  |  |  |  |  |  |  | 
10 | Nc1cc(CN2CCC(F)(C(=O)N3CCC(N4c5ccccc5Sc5ccc(C(F)(F)F)cc54)CC3)CC2)ccn1 |  | 51 |  | 79 | 11 |  | 25 |  |  |  |  |  |  |  |  |  |  | 
11 | Nc1cc(CN2CCC(F)(C(=O)N3CCC(N4Cc5ccccc5-c5ccccc5C4)CC3)CC2)ccn1 | 300 | 4 | 18000 | 27 | 2 | > 30000 |  |  |  |  |  | 38 |  | 28 |  | 65 |  | 91
12 | Nc1cc(CN2CCC(F)(C(=O)N3CCC(N4c5ccccc5Sc5ccccc54)CC3)CC2)ccn1 | > 30000 | 7 | > 30000 | 40 | 7 | > 30000 | 84 |  |  |  |  |  |  |  |  |  |  | 
13 | Nc1cc(CN2CCC(F)(C(=O)N3CCC(N4Cc5ccc(F)cc5C4)CC3)CC2)ccn1 | > 30000 | 7 | > 30000 | 4 | 2 | > 30000 |  |  |  |  |  |  |  |  |  |  |  | 94
14 | Nc1cc(CN2CCC(F)(C(=O)N3CCC(N4Cc5ccccc5C4)CC3)CC2)ccn1 | > 30000 | 4 | > 30000 | -2 | 2 | > 30000 |  | 81 |  |  |  |  |  |  |  |  |  | 
15 | COc1ccc2c(c1)CN(C1CCN(C(=O)C3(F)CCN(Cc4ccnc(N)c4)CC3)CC1)CCC2 | > 30000 | 4 | > 30000 | 7 | 2 | > 30000 | 77 |  |  |  |  |  |  |  |  |  |  | 
16 | COc1ccc2c(c1)CCCN(C1CCN(C(=O)C3(F)CCN(Cc4ccnc(N)c4)CC3)CC1)C2 | > 30000 | 3 | > 30000 | 12 | 1 | > 30000 | 74 |  |  |  |  |  |  |  |  |  |  | 
17 | Nc1cc(CN2CCC(F)(C(=O)N3CCC(N4CCc5ccccc5C4)CC3)CC2)ccn1 | > 30000 | 4 | > 30000 | 2 | 2 | > 30000 |  | 73 |  |  |  |  |  |  |  |  |  | 
18 | Nc1cc(CN2CCC(F)(C(=O)N3CCC(N4CCNc5ccccc5C4)CC3)CC2)ccn1 | > 30000 | 3 | > 30000 | 12 | 1 | > 30000 |  |  |  |  |  |  |  |  |  |  |  | 22
